Assay results taken from patent US6399612B1, “Heteroaryl butyric acids and their derivatives as inhibitors of matrix metalloproteinases” (Warner-Lambert Company, priority 1997, dated 2002).

Tests used:
Assay type in all cases: biochemical
Settings in all cases: thiopeptolide substrate Ac-Pro-Leu-Gly-thioester-Leu-Leu-Gly-OEt
[1] = biological target: MMP-2CD (gelatinase A catalytic domain) (Homo sapiens, UniProt P08253); assay: MMP-2CD inhibition, thiopeptolide substrate
Experimental: (§1) Experiments were carried out with the catalytic domains of the proteinases. […] IC50 values were determined using a thiopeptolide substrate, Ac-Pro-Leu-Gly-thioester-Leu-Leu-Gly-OEt (Ye Q.-Z., Johnson L. L., Hupe D. J., and Baragi V., “Purification and Characterization of the Human Stromelysin Catalytic Domain Expressed in Escherichia coli”, Biochemistry, 1992;31:11231-11235).

[2] = biological target: T1, MMP-3CD (stromelysin-1 catalytic domain) (Homo sapiens, UniProt P08254); assay: MMP-3CD inhibition, thiopeptolide substrate
T1 construct: Experiments were carried out with the catalytic domains of the proteinases
T1 sequence (P08254 100-272 limits assumed): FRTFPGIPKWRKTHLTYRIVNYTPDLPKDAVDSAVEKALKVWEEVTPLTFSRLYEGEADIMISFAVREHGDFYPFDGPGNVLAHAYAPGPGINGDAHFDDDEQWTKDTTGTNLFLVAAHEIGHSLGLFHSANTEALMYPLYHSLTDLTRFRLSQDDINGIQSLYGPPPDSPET
Experimental: as §1

[3] = biological target: T2, MMP-13CD (collagenase-3 catalytic domain) (Homo sapiens, UniProt P45452); assay: MMP-13CD inhibition, thiopeptolide substrate
T2 construct: Experiments were carried out with the catalytic domains of the proteinases
Experimental: as §1

O=C(O)CCC(=NO)c1ccc(-n2cccn2)cc1 [Example 1, 4-Hydroxyimino-4-(4-pyrazol-1-yl-phenyl)butyric Acid]
IC50 [1]: 1250 nM
IC50 [2]: 13000 nM
IC50 [3]: 10600 nM

O=C(O)CCC(=O)c1ccc(-c2ccc(Cl)s2)cc1 [Example 2, 4-[4-(5-Chloro-thiophen-2-yl)-phenyl]-4-oxo-butyric Acid]
IC50 [1]: 63.9 nM
IC50 [2]: 298 nM
IC50 [3]: 1100 nM

O=C(O)CCC(=NO)c1ccc(-c2ccc(Cl)s2)cc1 [Example 3]
IC50 [1]: 14 nM
IC50 [2]: 105 nM
IC50 [3]: 120 nM
